Consider 2 compounds from US20200061026A1, “METHODS AND COMPOSITIONS FOR PREVENTING VECTOR-BORNE DISEASE TRANSMISSION” (The Scripps Research Institute, priority 2016, published 2020).

The structures appear in SMILES notation. pIC50: −log10 of the molar value. Where two headings read alike, the source gives them in different places.

Data set [1] concerns Anopheles gambiae (Kisumu). Put plainly: Membrane feeding, Anopheles gambiae Kisumu strain. The class given is in vivo. The conditions noted are these: read-out: IC50 [95% CI]. On the procedure:
Mosquito colonies utilized in the examples were generally maintained as described: The colony of Anopheles stephensi (Sind-Kasur Nijmegen strain) was maintained at the Radboud University Medical Center, Nijmegen, The Netherlands, by 30° C. and 70-80% humidity and on a 12/12 hour day/night cycle. The Anopheles gambiae strains Kisumu and Tiassalé and the Aedes aegypti strains New Orleans and Cayman were reared at the Liverpool Insect Testing Establishment, Liverpool, UK. Kisumu is an insecticide susceptible lab strain. New Orleans was originally colonized by the Centers for Disease Control and Prevention. […]
Isoxazoline compounds fluralaner or afoxolaner were reconstituted in 50% human serum and 50% red blood cells and administered to adult Anopheles stephensi mosquitos via standard membrane feeding. Lethality was assessed 1, 2 or 8 days after exposure. […] The IC50 values of each compound for Anopheles death were determined by logistic regression using a least squares method to find the best fit and are shown in Table 1. IC50 values were calculated by applying a four-parameter logistic regression model using a least-squares method to find the best fit using the Graphpad Prism 5.0 software package. […]

Data set [2] has as its system Anopheles gambiae (Tiassalé). Briefly: Membrane feeding, Anopheles gambiae Tiassalé strain (rdl mutation). The class given is in vivo. The conditions noted are these: for pIC50: Anopheles gambiae, read-out: IC50 [95% CI]. The procedure:
Mosquito colonies utilized in the examples were generally maintained as described: The colony of Anopheles stephensi (Sind-Kasur Nijmegen strain) was maintained at the Radboud University Medical Center, Nijmegen, The Netherlands, by 30° C. and 70-80% humidity and on a 12/12 hour day/night cycle. The Anopheles gambiae strains Kisumu and Tiassalé and the Aedes aegypti strains New Orleans and Cayman were reared at the Liverpool Insect Testing Establishment, Liverpool, UK. Kisumu is an insecticide susceptible lab strain. New Orleans was originally colonized by the Centers for Disease Control and Prevention. The Tiassalé strain was colonized from Southern Cote D'Ivoire where resistance to all classes of insecticide is found and the Cayman strain was colonized from Grand Cayman, where Aedes aegypti are highly resistant to DDT and pyrethroid insecticides. Both resistant strains are routinely selected with insecticides to ensure the maintenance of resistance, 0.75% permethrin for Cayman and 0.05% deltamethrin for Tiassalé, and profiled for resistance to a range of insecticides, including 4% dieldrin, to which Tiassalé is resistant but Cayman is susceptible.
Isoxazoline compounds fluralaner or afoxolaner were reconstituted in 50% human serum and 50% red blood cells and administered to adult Anopheles stephensi mosquitos via standard membrane feeding. Lethality was assessed 1, 2 or 8 days after exposure. FIG. 2A represents a plot of viable Anopheles stephensi versus fluralaner concentration at each day of assessment. FIG. 2B represents a plot of viable Anopheles stephensi versus afoxolaner concentration at each day of assessment. […] The IC50 values of each compound for Anopheles death were determined by logistic regression using a least squares method to find the best fit and are shown in Table 1. IC50 values were calculated by applying a four-parameter logistic regression model using a least-squares method to find the best fit using the Graphpad Prism 5.0 software package.
The membrane feeding experiment described was repeated using the insecticide dieldrin on two strains of Anopheles gambiae: Kisumu and Tiassale. The Tiassale strain has a mutation in the resistance to dieldrin (rdl) locus, which codes for γ-aminobutyric acid (GABA) receptor. The Tiassale strain was resistant to pyrethroids, carbamate, DDT and dieldrin (knockdown resistance (kdr), Ace and rdl mutations). The Kisumu strain was susceptible to killing by all tested insecticides. FIG. 3A represents a plot of percentage survival of Kisumu and Tiassale strains of Anopheles gambiae versus dieldrin concentration. FIG. 3B represents a plot of survival of the Kisumu and Tiassale strains at 10 μM dieldrin. […] Both figures indicate that the dose-response in systemic feed experiment performed here in allows for identification of a resistance profile.
The feed experiment in Anopheles gambiae was repeated using the isoxazoline compounds fluralaner and afoxolaner to determine if the rdl mutation confers resistance to the isoxazoline insecticides. Isoxazoline insecticides target Rdl, but in a location thought to be different from dieldrin. The mosquitos were fed fluralaner or afoxolaner at various concentrations and lethality was assessed after 24 hours. FIG. 4A represents a plot of percentage survival of Kisumu and Tiassale strains of Anopheles gambiae versus fluralaner concentration. FIG. 4B represents a plot of percentage survival of Kisumu and Tiassale strains of Anopheles gambiae versus afoxolaner concentration.

Data set [3] can be described thus: Further in vitro degradation assay, human primary hepatocytes. The conditions noted are these: for half-life / hepatocyte CLint: human; for metabolization when incubated with human hepatocytes: in words. On the procedure: In a further assay, isoxazolines (fluralaner and afoxolaner) and control compounds (7-Ethoxycoumarin and 7-Hydroxycoumarin [Sigma]) were dissolved in DMSO at 10 and 30 mM respectively, then diluted first 20-fold with 45% methanol in water and a further 10-fold in pre-warmed Williams' Medium E. Cryopreserved human, dog and rat hepatocytes (In Vitro Technologies) were thawed, isolated by percoll gradient and suspended in Williams' Medium E. Cells were then dispensed into the wells of 96-well plates containing 10 μL of diluted compounds, to reach a final concentration of 0.5×10^6 cells/mL and 1 μM of isoxazolines or 3 μM of control. After an incubation at 37° C. of 0, 15, 30, 60 or 90 minutes, the reaction was stopped with acetonitrile. The samples were then shaken for 10 minutes at 500 rpm and centrifuged at 3220 g for 20 minutes. Supernatants were transferred and stored at 4° C. until LC-MS-MS analysis.

The test system of another data set is Lutzomyia longipalpis. Briefly: Membrane feeding, sand fly Lutzomyia longipalpis. The conditions noted are these: in vivo. The source says:
(§1) Isoxazoline compounds fluralaner or afoxolaner were reconstituted in 50% human serum and 50% red blood cells and administered to sand flies Lutzomyia longipalpis and Phlebotomus argentipes via standard membrane feeding. These san fly species are vectors for visceral leishmaniasis. FIG. 12A represents a plot of viable Lutzomyia longipalpis versus fluralaner concentration at various times of assessment. FIG. 12B represents a plot of viable Lutzomyia longipalpis versus afoxolaner concentration at various times of assessment. FIG. 12C represents a plot of viable Phlebotomus argentipes versus fluralaner concentration at various times of assessment. FIG. 12D represents a plot of viable Phlebotomus argentipes versus afoxolaner concentration at various times of assessment. […] The EC50 values of each compound for sand fly death were determined by logistic regression using a least squares method to find the best fit and are shown in the figures.

For another data set, the system named is Phlebotomus argentipes. Put plainly: Membrane feeding, sand fly Phlebotomus argentipes. The conditions noted are these: in vivo.
Description: as §1

The subject of another data set is Brugia pahangi. Put plainly: Brugia pahangi microfilariae viability (Cell-Titer Glo). The class given is in vivo. On the procedure: Microfilariae of Brugia pahangi were kept in 75 cm^2 flasks in RPMI-1640 with fetal bovine serum as described previously (Plos Negl. Trop. Dis. 2012, e1494). To test viability, 384-well plates were filled with 250 microfilariae per well. Serial dilutions of isoxazolines, ivermectin, moxidectin and equivalent vehicle concentration (0.5% DMSO) were added to the wells. Seventy two hours after treatment, viability was assessed with the Cell-Titer Glo reagent (Promega). FIG. 13A represents a plot of viable Brugia pahangi versus fluralaner, afoxolaner, or control compound (moxidectin and ivermectin) concentration as assessed at 24 hours. FIG. 13B represents a plot of viable Brugia pahangi versus fluralaner, afoxolaner, or control compound (moxidectin and ivermectin) concentration as assessed at 48 hours. FIG. 13C represents a plot of viable Brugia pahangi versus fluralaner, afoxolaner, or control compound (moxidectin and ivermectin) concentration as assessed at 72 hours.

The conditions of data set [4]: Dog pharmacokinetics (published values); cited from earlier work.

Broadly, the pIC50 is −log10 of the IC50, conventionally taken in molar units. As usually defined, the half-life is the time in which the quantity being followed falls by half. As usually defined, the hepatocyte CLint is a measure of how fast metabolising enzymes remove a compound, apart from limits set by blood flow. Consider `O=C(CNC(=O)c1ccc(C2=NO[C@](c3cc(Cl)cc(C(F)(F)F)c3)(C(F)(F)F)C2)c2ccccc12)NCC(F)(F)F` (racemic) [Afoxolaner, afoxolaner], for which, in data set [1] (24 h), the pIC50 was 6.99. In addition, in data set [2] (24 h), the pIC50 is 7.00. In data set [2] (Tiassalé strain), the “activity against strain carrying the resistance-to-dieldrin (rdl) mutation (in words)” value is recorded as “fully active”. Further, in data set [3] (hepatocytes), the half-life is more than 3.61 h and the hepatocyte CLint was less than 6.4 µL/min/1e6 cells. The “metabolization when incubated with human hepatocytes” value in data set [3] is given as “Neither fluralaner nor afoxolaner showed measurable metabolization”. Moreover, in the data set on Lutzomyia longipalpis, the “killing of sand flies (in words)” value was “effective at killing the sand flies in a dose-dependent manner”. In the data set with Phlebotomus argentipes, the “killing of sand flies (in words)” value was “effective at killing the sand flies in a dose-dependent manner”. In the data set on Brugia pahangi, the “killing of Brugia pahangi (in words)” value is reported as “effective in killing Brugia pahangi”. Moreover, in data set [4], the “CL (plasma clearance)” value is 4.95 mL/h/kg, the Oral bioavailability is on record as 74%, the “V (volume of distribution)” value is 2.68 L/kg and the half-life is 372 h.

Turning to `Cc1cc(C2=NO[C@](c3cc(Cl)cc(Cl)c3)(C(F)(F)F)C2)ccc1C(=O)NCC(=O)NCC(F)(F)F` [Fluralaner, fluralaner], the pIC50 in data set [1] (24 hours after the blood meal, Kisumu strain) is 7.48. Besides, in data set [2] (24 hours after the blood meal, Tiassalé strain), the pIC50 is 7.48. Further, the “activity against strain carrying the resistance-to-dieldrin (rdl) mutation (in words)” value in data set [2] (Tiassalé strain) was “fully active”. In data set [3] (cryopreserved hepatocytes), this compound registered a half-life of more than 3.61 h and a hepatocyte CLint of less than 6.4 µL/min/1e6 cells. The “metabolization when incubated with human hepatocytes” value in data set [3] is “Neither fluralaner nor afoxolaner showed measurable metabolization”. For the same compound, the “killing of sand flies (in words)” value with Lutzomyia longipalpis is given as “effective at killing the sand flies in a dose-dependent manner”. Further, the “killing of sand flies (in words)” value in the data set with Phlebotomus argentipes is “effective at killing the sand flies in a dose-dependent manner”. For the same compound, the “killing of Brugia pahangi (in words)” value with Brugia pahangi is reported as “effective in killing Brugia pahangi”. In data set [4], the “CL (plasma clearance)” value was 5.83 mL/h/kg, the Oral bioavailability was 11-34%, the “V (volume of distribution)” value is recorded as 3.1 L/kg and the half-life is 360 h.
